# Measured values: patent US12447117B2, “Composition and method of enhancing skin barrier using the same” (AMOREPACIFIC CORPORATION, priority 2018, dated 2025)
# Key:
# [1] = tested on: KRT10 (keratin 10) gene expression in normal human epidermal keratinocytes (NHEK); experiment: Expression level of keratinocyte differentiation marker KRT10 in UVB-irradiated NHEK (TAQMAN real-time PCR); assay type: cell-based; settings: UVB 25 mJ/cm^2, 10 nM compound, harvested on fourth day of culture, versus UV-irradiated cells (FIG. 1)
# Protocol: (§1) Normal human epidermal keratinocytes (NHEK) were cultured in a 6-well plate incubator. 24 hours later, the normal human epidermal keratinocytes (NHEK) were cultured by replacing it with phosphate-buffered saline (PBS) and irradiating it with UVB (25 mJ/cm^2) and adding 10 nM of a compound represented by Chemical Formula 1-1 (Cayman Chemical) to the NHEK culture medium. On the fourth day of the culture, cells were harvested to separate RNA and synthesize cDNA through RT-PCR (a reverse transcriptional polymerase chain reaction), and the synthesized cDNA was used to perform TAQMAN™ real-time PCR and measure gene expression levels of a keratinocyte differentiation marker, KRT10, and a desmosome constituent factor, DSC1, and the results are shown in FIGS. 1 and 2.
# [2] = tested on: DSC1 (Desmocollin-1) gene expression in normal human epidermal keratinocytes (NHEK); experiment: Expression level of desmosome constituent factor DSC1 in UVB-irradiated NHEK (TAQMAN real-time PCR); assay type: cell-based; settings: UVB 25 mJ/cm^2, 10 nM compound, harvested on fourth day of culture, versus UV-irradiated cells (FIG. 2)
# Protocol: as §1
smiles,measurement,setting,value
CC/C=C\C[C@H](O)/C=C/C=C\C=C\C=C\[C@@H](O)[C@@H](O)C/C=C\CCC(=O)O [Chemical Formula 1-1],gene expression level of KRT10 (keratin 10),[1],increased again
same,gene expression level of DSC1,[2],increased again
